According to publication PMC5967867, “An NMDAR positive and negative allosteric modulator series share a binding site and are interconverted by methyl groups” (eLife, 2018):
Where two headings read alike, the source gives them in different places.

Assays:
GluN1/GluN2B NMDARs = GluN1/GluN2B NMDARs (Rattus norvegicus, UniProt P35439+Q00960); assay: Two-electrode voltage-clamp recordings, Xenopus laevis oocytes expressing GluN1/GluN2B; type: cell-based; settings: saturating glutamate/glycine 100/30 µM; for EC50: mean [95% CI], - = not fit, response at 30 µM differed by no more than 15% from control, read-out: EC50 (µM) [conf. int.]; for Emax: mean ± SEM, read-out: Maximal Degree of Modulation (% of control)
GluN1/GluN2B NMDARs, sequence (Q00960 27-1482, other chains not shown): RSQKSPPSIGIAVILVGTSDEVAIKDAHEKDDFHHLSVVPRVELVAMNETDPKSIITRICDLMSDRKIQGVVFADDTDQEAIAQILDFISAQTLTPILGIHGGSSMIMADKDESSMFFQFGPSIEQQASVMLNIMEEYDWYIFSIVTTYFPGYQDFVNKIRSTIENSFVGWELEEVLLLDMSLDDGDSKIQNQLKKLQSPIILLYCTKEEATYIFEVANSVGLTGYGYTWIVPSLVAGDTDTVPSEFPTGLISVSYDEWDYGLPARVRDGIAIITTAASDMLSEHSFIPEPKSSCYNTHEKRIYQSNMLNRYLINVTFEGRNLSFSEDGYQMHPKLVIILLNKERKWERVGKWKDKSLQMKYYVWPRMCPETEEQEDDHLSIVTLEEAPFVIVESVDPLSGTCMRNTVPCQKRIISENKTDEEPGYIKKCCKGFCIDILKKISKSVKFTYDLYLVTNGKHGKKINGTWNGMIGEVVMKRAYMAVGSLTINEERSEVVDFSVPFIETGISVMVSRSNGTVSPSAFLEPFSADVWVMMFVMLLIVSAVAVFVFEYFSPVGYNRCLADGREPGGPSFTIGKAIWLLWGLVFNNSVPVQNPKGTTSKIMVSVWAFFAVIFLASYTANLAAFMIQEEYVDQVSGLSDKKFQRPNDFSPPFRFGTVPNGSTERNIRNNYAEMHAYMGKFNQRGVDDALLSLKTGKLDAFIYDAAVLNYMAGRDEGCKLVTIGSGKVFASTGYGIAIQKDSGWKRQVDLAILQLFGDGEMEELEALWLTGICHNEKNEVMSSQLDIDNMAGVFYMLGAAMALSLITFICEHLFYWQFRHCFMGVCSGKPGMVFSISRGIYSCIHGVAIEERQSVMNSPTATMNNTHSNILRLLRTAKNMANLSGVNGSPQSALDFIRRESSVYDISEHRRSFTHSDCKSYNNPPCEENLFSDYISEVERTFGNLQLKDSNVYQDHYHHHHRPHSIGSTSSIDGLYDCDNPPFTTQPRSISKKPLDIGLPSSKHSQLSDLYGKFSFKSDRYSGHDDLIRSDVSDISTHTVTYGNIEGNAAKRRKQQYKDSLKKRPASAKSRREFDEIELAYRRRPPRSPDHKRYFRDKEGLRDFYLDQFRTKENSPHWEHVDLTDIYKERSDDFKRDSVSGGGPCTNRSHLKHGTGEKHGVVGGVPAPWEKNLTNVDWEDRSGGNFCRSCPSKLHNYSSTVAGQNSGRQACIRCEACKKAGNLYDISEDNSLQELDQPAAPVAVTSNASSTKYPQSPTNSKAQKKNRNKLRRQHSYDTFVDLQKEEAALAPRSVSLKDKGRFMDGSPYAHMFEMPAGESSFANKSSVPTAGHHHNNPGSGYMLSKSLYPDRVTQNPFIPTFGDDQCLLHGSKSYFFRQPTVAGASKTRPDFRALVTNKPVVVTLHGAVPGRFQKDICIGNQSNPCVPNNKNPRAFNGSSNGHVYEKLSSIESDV
Method: (§1) cDNAs for rat wild type NMDAR subunits GluN1-1a (GenBank U11418, U08261; hereafter GluN1 or GluN1a), GluN1-1b (U08263, hereafter GluN1b), GluN2A (D13211), GluN2B (U11419), GluN2C (M91563), and GluN2D (L31611, modified as described in [Monyer et al., 1994]) were provided by Drs. S. Heinemann (Salk Institute), S. Nakanishi (Kyoto University), and P. Seeburg (University of Heidelberg). Site-directed mutagenesis was conducted using the QuikChange kit (Agilent Technologies, Santa Clara, CA) following the recommended protocol. DNA sequencing was used to verify all mutations. The amino acid numbering system started with the initiating methionine as residue number one. For expression in Xenopus laevis oocytes, cDNA constructs were linearized by restriction enzymes, and subsequently used to synthesize in vitro cRNAs following the manufacturer’s protocol (mMessage mMachine, Ambion, ThermoFisher Scientific, Waltham, MA).
(§2) Xenopus laevis stage VI oocytes (Ecocyte Biosciences, Austin, TX) were injected as previously described ([Hansen et al., 2013]) 2–7 days prior to recording with cRNA encoding the NMDAR subunits and stored at 15°C in media containing (in mM) 88 NaCl, 2.4 NaHCO3, 1 KCl, 0.33 Ca(NO3)2, 0.41 CaCl2, 0.82 MgSO4, 5 Tris-HCl; pH was adjusted to 7.4 with NaOH and the solution supplemented with 1 U/mL penicillin, 0.1 mg/mL gentamicin sulfate, and 1 μg/mL streptomycin. Two-electrode voltage-clamp recordings were performed at room temperature (21–23°C) using different internal solutions for voltage and current electrodes (0.3 M and 3.0 M KCl, respectively). All extracellular solutions were made from a solution containing (in mM) 90 NaCl, 1 KCl, 10 HEPES, 0.5 BaCl2, 0.01 EDTA (pH 7.4 with NaOH). Experiments were performed using an eight port Modular Valve Positioner (Hamilton Company, Reno, NV) and controlled by custom software (Easy Oocyte, Emory University, Atlanta, GA)to exchange solutions. Oocyte currents were recorded at a holding potential of −40 mV using a two-electrode voltage-clamp amplifier (OC-725B or OC-725C, Warner Instruments, Hamden, CT). […] In MTSEA experiments, fresh MTSEA solutions (0.2 mM) were prepared and utilized in less than 30 min to limit compound degradation.
(§3) Measurements are given as mean ± SEM unless otherwise indicated. The number of replicate experiments used was chosen to ensure a power level of at least 0.80 when α = 0.05 and when detecting appropriate effect sizes. EC50 and IC50 values and confidence intervals reported were calculated by averaging the log(EC50) or log(IC50) value, determining confidence intervals for mean log(EC50) or log(IC50), and converting back to units of molarity. Statistical significance evaluations (α set to 0.05) were performed using a one-way ANOVA with Dunnett’s multiple comparison test, a paired t–test, or other appropriate tests as described.

GluN1/GluN2A NMDARs = GluN1/GluN2A NMDARs (Rattus norvegicus, UniProt P35439+Q00959); assay: Two-electrode voltage-clamp recordings, Xenopus laevis oocytes expressing GluN1/GluN2A; type: cell-based; settings: saturating glutamate/glycine 100/30 µM; for EC50: mean [95% CI], - = not fit, response at 30 µM differed by no more than 15% from control, read-out: EC50 (µM) [conf. int.]; for Emax: mean ± SEM, read-out: Maximal Degree of Modulation (% of control)
GluN1/GluN2A NMDARs, sequence (Q00959 23-1464, other chains not shown): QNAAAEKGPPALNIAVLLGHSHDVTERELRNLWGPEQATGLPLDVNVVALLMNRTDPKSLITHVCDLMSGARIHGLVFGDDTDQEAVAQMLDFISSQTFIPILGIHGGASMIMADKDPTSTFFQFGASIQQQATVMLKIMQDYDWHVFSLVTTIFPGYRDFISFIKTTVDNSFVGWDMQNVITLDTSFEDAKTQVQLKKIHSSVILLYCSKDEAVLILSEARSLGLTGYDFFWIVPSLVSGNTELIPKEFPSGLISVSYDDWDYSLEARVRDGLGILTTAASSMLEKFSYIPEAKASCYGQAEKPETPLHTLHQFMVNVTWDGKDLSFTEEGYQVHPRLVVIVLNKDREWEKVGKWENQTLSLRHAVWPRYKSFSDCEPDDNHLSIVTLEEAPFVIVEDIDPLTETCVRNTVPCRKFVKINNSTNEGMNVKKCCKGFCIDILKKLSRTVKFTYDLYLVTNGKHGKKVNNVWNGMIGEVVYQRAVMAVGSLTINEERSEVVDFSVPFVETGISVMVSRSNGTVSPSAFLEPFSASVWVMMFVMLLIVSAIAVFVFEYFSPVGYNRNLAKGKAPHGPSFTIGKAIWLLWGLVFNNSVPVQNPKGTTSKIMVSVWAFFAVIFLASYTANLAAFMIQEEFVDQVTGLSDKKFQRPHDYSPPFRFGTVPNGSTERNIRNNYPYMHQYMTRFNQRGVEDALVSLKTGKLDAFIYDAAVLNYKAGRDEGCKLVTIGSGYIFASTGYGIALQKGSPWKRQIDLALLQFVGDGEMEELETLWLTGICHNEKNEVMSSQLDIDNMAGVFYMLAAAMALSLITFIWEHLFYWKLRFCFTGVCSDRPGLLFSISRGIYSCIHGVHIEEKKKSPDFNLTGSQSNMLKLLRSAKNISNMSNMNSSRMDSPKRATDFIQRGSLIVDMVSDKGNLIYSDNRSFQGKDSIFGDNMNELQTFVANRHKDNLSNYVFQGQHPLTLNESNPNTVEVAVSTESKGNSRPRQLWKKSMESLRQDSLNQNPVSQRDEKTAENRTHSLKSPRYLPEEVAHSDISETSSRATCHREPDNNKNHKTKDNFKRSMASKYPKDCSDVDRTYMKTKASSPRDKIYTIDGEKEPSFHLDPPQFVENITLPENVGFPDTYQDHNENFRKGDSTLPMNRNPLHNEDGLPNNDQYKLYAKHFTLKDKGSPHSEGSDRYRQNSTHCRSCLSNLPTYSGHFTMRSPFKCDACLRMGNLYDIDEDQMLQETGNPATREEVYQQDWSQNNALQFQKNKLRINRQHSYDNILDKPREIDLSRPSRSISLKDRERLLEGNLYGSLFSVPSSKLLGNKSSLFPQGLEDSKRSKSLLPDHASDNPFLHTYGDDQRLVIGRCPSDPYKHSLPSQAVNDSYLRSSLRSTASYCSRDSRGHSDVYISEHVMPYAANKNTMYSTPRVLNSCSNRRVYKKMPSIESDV
Method: as §1, §2, §3

GluN1/GluN2C NMDARs = GluN1/GluN2C NMDARs (Rattus norvegicus, UniProt P35439+Q00961); assay: Two-electrode voltage-clamp recordings, Xenopus laevis oocytes expressing GluN1/GluN2C; type: cell-based; settings: saturating glutamate/glycine 100/30 µM; for EC50: mean [95% CI], read-out: EC50 (µM) [conf. int.]; for Emax: mean ± SEM, read-out: Maximal Degree of Modulation (% of control)
Method: as §1, §2, §3

GluN1/GluN2D NMDARs = GluN1/GluN2D NMDARs (Rattus norvegicus, UniProt P35439+Q62645); assay: Two-electrode voltage-clamp recordings, Xenopus laevis oocytes expressing GluN1/GluN2D; type: cell-based; settings: for Emax: mean ± SEM, read-out: Maximal Degree of Modulation (% of control)
GluN1/GluN2D NMDARs, sequence (Q62645 28-1323, other chains not shown): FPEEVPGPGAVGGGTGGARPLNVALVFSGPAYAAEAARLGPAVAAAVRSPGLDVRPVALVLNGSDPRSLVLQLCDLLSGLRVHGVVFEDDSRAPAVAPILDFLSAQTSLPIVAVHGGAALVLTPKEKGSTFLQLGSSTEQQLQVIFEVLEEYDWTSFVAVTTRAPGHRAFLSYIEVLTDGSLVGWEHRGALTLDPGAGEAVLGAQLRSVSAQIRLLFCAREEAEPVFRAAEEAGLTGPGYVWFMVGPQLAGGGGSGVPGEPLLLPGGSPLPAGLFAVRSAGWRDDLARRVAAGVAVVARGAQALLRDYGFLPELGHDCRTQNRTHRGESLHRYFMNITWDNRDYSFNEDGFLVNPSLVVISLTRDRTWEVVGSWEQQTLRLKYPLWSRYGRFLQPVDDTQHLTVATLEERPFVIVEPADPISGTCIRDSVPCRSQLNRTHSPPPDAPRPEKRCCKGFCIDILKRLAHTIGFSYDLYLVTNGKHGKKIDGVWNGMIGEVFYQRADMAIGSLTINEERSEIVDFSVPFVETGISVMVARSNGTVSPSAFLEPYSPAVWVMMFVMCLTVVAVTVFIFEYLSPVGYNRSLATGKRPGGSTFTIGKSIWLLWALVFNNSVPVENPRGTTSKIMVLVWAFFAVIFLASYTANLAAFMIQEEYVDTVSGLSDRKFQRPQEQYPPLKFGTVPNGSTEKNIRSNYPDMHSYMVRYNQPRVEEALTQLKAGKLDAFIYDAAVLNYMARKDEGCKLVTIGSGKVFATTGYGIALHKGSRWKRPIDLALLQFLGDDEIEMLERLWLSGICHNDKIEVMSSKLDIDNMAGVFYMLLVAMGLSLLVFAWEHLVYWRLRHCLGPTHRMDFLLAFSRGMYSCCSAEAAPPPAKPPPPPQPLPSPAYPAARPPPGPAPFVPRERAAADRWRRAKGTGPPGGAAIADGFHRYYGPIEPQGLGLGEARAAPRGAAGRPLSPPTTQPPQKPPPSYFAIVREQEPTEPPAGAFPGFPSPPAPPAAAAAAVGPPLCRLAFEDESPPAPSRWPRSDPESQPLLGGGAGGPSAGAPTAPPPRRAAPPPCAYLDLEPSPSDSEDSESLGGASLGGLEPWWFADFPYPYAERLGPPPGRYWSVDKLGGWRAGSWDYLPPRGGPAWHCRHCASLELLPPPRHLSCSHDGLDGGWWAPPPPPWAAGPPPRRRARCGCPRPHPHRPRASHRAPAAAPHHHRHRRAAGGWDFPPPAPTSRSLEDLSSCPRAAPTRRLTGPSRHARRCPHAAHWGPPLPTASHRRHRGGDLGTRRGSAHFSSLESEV
Method: cDNAs for rat wild type NMDAR subunits GluN1-1a (GenBank U11418, U08261; hereafter GluN1 or GluN1a), GluN1-1b (U08263, hereafter GluN1b), GluN2A (D13211), GluN2B (U11419), Glu[…]), and Glu[…], modified as described in [Monyer et al., 1994]) were provided by Drs. S. Heinemann (Salk Institute), S. Nakanishi (Kyoto University), and P. Seeburg (University of Heidelberg). Site-directed mutagenesis was conducted using the QuikChange kit (Agilent Technologies, Santa Clara, CA) following the recommended protocol. DNA sequencing was used to verify all mutations. The amino acid numbering system started with the initiating methionine as residue number one. For expression in Xenopus laevis oocytes, cDNA constructs were linearized by restriction enzymes, and subsequently used to synthesize in vitro cRNAs following the manufacturer's protocol (mMessage mMachine, Ambion, ThermoFisher Scientific, Waltham, MA). […] All extracellular solutions were made from a solution containing (in mM) 90 NaCl, 1 KCl, 10 HEPES, 0.5 BaCl2, 0.01 EDTA (pH 7.4 with NaOH). Experiments were performed using an eight port Modular Valve Positioner (Hamilton Company, Reno, NV) and controlled by custom software (Easy Oocyte, Emory University, Atlanta, GA)to exchange solutions. Oocyte currents were recorded at a holding potential of -40 mV using a two-electrode voltage-clamp amplifier (OC-725B or OC-725C, Warner Instruments, Hamden, CT). […] Measurements are given as mean ± SEM unless otherwise indicated. […] EC50 and IC50 values and confidence intervals reported were calculated by averaging the log(EC50) or log(IC50) value, determining confidence intervals for mean log(EC50) or log(IC50), and converting back to units of molarity. Statistical significance evaluations (α set to 0.05) were performed using a one-way ANOVA with Dunnett's multiple comparison test, a paired t-test, or other appropriate tests as described.

NMDAR = test system: NMDAR; design: method as in Kew et al., 1996; settings: ref Kew et al., 1996; cited from earlier work
[1] = saturating glutamate/glycine 100/30 µM, mean [95% CI], read-out: EC50 (µM) [conf. int.]
[2] = saturating glutamate/glycine 100/30 µM

| SMILES | EC50 (GluN1/GluN2B NMDARs) [µM] | Emax (GluN1/GluN2B NMDARs) [%] | EC50 (GluN1/GluN2A NMDARs) [µM] | Emax (GluN1/GluN2A NMDARs) [%] | EC50 (GluN1/GluN2C NMDARs) [µM] | Emax (GluN1/GluN2C NMDARs) [%] | melting point | EC50 (GluN1/GluN2D NMDARs; [1]) [µM] | Emax (GluN1/GluN2D NMDARs; [2]) [%] | EC50 (GluN1/GluN2D NMDARs; read-out: Control Glutamate EC50 (µM) [conf. int.], glutamate EC50 in 30 µM glycine, absence of EU1794-27) [µM] | residual current at saturating levels (NMDAR) |
| --- | --- | --- | --- | --- | --- | --- | --- | --- | --- | --- | --- |
| N[C@@H](CCC(=O)O)C(=O)O [Glutamate, reference compound] |  |  |  |  |  |  |  |  |  | 0.21 |  |
| CC(C(O)c1ccc(O)cc1)N1CCC(Cc2ccccc2)CC1 (stereo not shown) [ifenprodil] |  |  |  |  |  |  |  |  |  |  | ~ 10% |

Continued, in another order:

| EC50 (GluN1/GluN2B NMDARs) [µM] | Emax (GluN1/GluN2B NMDARs) [%] | EC50 (GluN1/GluN2A NMDARs) [µM] | Emax (GluN1/GluN2A NMDARs) [%] | EC50 (GluN1/GluN2C NMDARs) [µM] | Emax (GluN1/GluN2C NMDARs) [%] | melting point | EC50 (GluN1/GluN2D NMDARs; [1]) [µM] | Emax (GluN1/GluN2D NMDARs; [2]) [%] | SMILES | EC50 (GluN1/GluN2D NMDARs; read-out: Control Glutamate EC50 (µM) [conf. int.], glutamate EC50 in 30 µM glycine, absence of EU1794-27) [µM] | residual current at saturating levels (NMDAR) |
| --- | --- | --- | --- | --- | --- | --- | --- | --- | --- | --- | --- |
| 2.5 | 71 | 18 | 36 | 4 | 140 | 152 to 154 °C | 9.3 |  | CC(C)OC(=O)c1c(NC(=O)CC2SC(=N)NC2=O)sc2c1CCCC2 (stereo not shown) [EU1794-5, isopropyl 2-(2-(2-imino-4-oxothiazolidin-5-yl)acetamido)-4,5,6,7-tetrahydrobenzo[b]thiophene-3-carboxylate] |  |  |
| 1.1 | 43 | 1.1 | 19 | 0.74 | 32 | 229 °C (dec.) | 0.43 | 46 | CC1CCc2c(sc(NC(=O)CC3SC(=N)NC3=O)c2C(=O)OC(C)C)C1 (stereo not shown) [EU1794-19, isopropyl 2-(2-(2-imino-4-oxothiazolidin-5-yl)acetamido)-6-methyl-4,5,6,7-tetrahydrobenzo[b]thiophene-3-carboxylate] |  |  |
| 1 | 220 | > 30 |  | 0.77 | 180 |  | 1 | 250 | N=C1NC(=O)C(CC(=O)Nc2sc3c(c2C(=O)OCc2ccccc2)CCCC3)S1 (stereo not shown) [EU1794-25, benzyl 2-(2-(2-imino-4-oxothiazolidin-5-yl)acetamido)-4,5,6,7-tetrahydrobenzo[b]thiophene-3-carboxylate] |  |  |
| 1.4 | 140 | 3.7 | 59 | 3.8 | 130 |  | 5.7 | 166 | CCCCOC(=O)c1c(NC(=O)CC2SC(=N)NC2=O)sc2c1CCCC2 (stereo not shown) [EU1794-29, butyl 2-(2-(2-imino-4-oxothiazolidin-5-yl)acetamido)-4,5,6,7-tetrahydrobenzo[b]thiophene-3-carboxylate] |  |  |
